EC50 data for 27 molecules are collected here from US9714231B2, “Pyrrolidine GPR40 modulators” (BRISTOL-MYERS SQUIBB COMPANY, priority 2012, dated 2017).

For the assay, the target named is human GPR40 (Homo sapiens, UniProt O14842). As to the kind of experiment: FDSS-based intracellular calcium assay (Human GRP40 in vitro assay). In kind it is cell-based. The note with it: cells expressing GPR40, intracellular Ca2+ response, FDSS reader; read-out: hGPR40 EC50. Further details: 3xFLAG; expressed in transfected cells. How it is done: To conduct the fluorescent imaging plate reader (FLIPR)-based calcium flux assay to measure intracellular Ca^2+ response, cells expressing GPR40 are plated on 384 well plates (BD BIOCOAT® #356697) at a density of 20,000 cells/20 μL medium per well in phenol red and serum-free DMEM (GIBCO® #21063-029) and incubated overnight. Using BD kit #s 80500-310 or -301, the cells are incubated with 20 μL per well of Hank's buffered salt solution with 1.7 mM probenecid and Fluo-3 at 37° C. for 30 min. Compounds are dissolved in DMSO and diluted to desired concentrations with assay buffer and added to the cells as 3× solution (20 μL per well). Run fluorescence/luminescence reader FDSS (Hamamatsu) to read intracellular Ca^2+ response.

Where a name gives a salt, the structure may show the parent alone.

human GPR40, sequence (O14842 whole entry): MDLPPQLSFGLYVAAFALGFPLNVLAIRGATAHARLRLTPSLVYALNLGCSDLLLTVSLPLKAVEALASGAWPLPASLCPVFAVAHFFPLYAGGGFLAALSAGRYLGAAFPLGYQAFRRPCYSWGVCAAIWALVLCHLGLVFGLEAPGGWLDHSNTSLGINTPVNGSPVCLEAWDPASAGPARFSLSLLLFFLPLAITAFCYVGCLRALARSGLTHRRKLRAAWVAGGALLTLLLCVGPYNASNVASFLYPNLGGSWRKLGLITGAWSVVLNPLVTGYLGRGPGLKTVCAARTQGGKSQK

As for `COc1ccc(F)c(N2C[C@@H](C)[C@@H](Oc3ccc(N4C[C@H](OC)C[C@@H]4CC(=O)O)cc3)[C@@H](C)C2)c1` [Example 56, 2-((2R,4R)-1-(4-(((3S,4S,5R)-1-(2-Fluoro-5-methoxyphenyl)-3,5-dimethylpiperidin-4-yl)oxy)phenyl)-4-methoxypyrrolidin-2-yl)acetic acid, HCl], the EC50 was determined as 2500 nM.

In the case of `COc1ccc(Br)c(N2CCC(Oc3ccc(N4C[C@H](OC)C[C@@H]4CC(=O)O)cc3)CC2)c1` [Example 58, 2-((2R,4R)-1-(4-(1-(2-Bromo-5-methoxyphenyl)piperidin-4-yloxy)phenyl)-4-methoxypyrrolidin-2-yl)acetic acid, TFA], the EC50 was 140 nM.

Turning to `COc1ccc(C(C)C)c(N2CCC(Oc3ccc(N4C[C@H](OC)C[C@@H]4CC(=O)O)cc3)CC2)c1` [Example 60, 2-((2R,4R)-1-(4-(1-(2-Isopropyl-5-methoxyphenyl)piperidin-4-yloxy)phenyl)-4-methoxypyrrolidin-2-yl)acetic acid, TFA], the EC50 came to 190 nM.

Turning to `CO[C@@H]1C[C@H](CC(=O)O)N(c2ccc(OC3CCN(c4cc(OC(F)(F)F)ccc4F)CC3)cc2)C1` [Example 63, 2-((2R,4R)-1-(4-(1-(2-Fluoro-5-(trifluoromethoxy)phenyl)piperidin-4-yloxy)phenyl)-4-methoxypyrrolidin-2-yl)acetic acid, TFA], the concentration for a half-maximal effect (EC50) worked out at 2600 nM.

As for `CCOc1ccc(F)c(N2CCC(Oc3ccc(N4C[C@H](Oc5ccccc5C#N)C[C@@H]4CC(=O)O)cc3)CC2)c1` [Example 66, 2-((2R,4R)-4-(2-Cyanophenoxy)-1-(4-(1-(5-ethoxy-2-fluorophenyl)piperidin-4-yloxy)phenyl)pyrrolidin-2-yl)acetic acid], the EC50 was determined as 1400 nM.

In the case of `CCOc1ccc(F)c(N2CCC(Oc3ccc(N4C[C@H](Oc5ccccc5C)C[C@@H]4CC(=O)O)cc3)CC2)c1` [Example 67, 2-((2R,4R)-1-(4-(1-(5-Ethoxy-2-fluorophenyl)piperidin-4-yloxy)phenyl)-4-(o-tolyloxy)pyrrolidin-2-yl)acetic acid], the EC50 turned out to be 950 nM.

`CCOc1ccc(F)c(N2CCC(Oc3ccc(N4C[C@H](Oc5cccc(C#N)c5)C[C@@H]4CC(=O)O)cc3)CC2)c1` [Example 68, 2-((2R,4R)-4-(3-Cyanophenoxy)-1-(4-(1-(5-ethoxy-2-fluorophenyl)piperidin-4-yloxy)phenyl)pyrrolidin-2-yl)acetic acid]: the EC50 is 310 nM.

`CCOc1ccc(F)c(N2CCC(Oc3ccc(N4C[C@H](Oc5cccc(Cl)c5)C[C@@H]4CC(=O)O)cc3)CC2)c1` [Example 69, 2-((2R,4R)-4-(3-Chlorophenoxy)-1-(4-(1-(5-ethoxy-2-fluorophenyl)piperidin-4-yloxy)phenyl)pyrrolidin-2-yl)acetic acid]: the EC50 was 160 nM.

Turning to `CCOc1ccc(F)c(N2CCC(Oc3ccc(N4C[C@H](Oc5cccc(C(F)(F)F)c5)C[C@@H]4CC(=O)O)cc3)CC2)c1` [Example 71, 2-((2R,4R)-1-(4-(1-(5-Ethoxy-2-fluorophenyl)piperidin-4-yloxy)phenyl)-4-(3-(trifluoromethyl)phenoxy)pyrrolidin-2-yl)acetic acid], the EC50 was found to be 250 nM.

Take `CCOc1ccc(F)c(N2CCC(Oc3ccc(N4C[C@H](Oc5cccc(C)c5)C[C@@H]4CC(=O)O)cc3)CC2)c1` [Example 72, 2-((2R,4R)-1-(4-(1-(5-Ethoxy-2-fluorophenyl)piperidin-4-yloxy)phenyl)-4-(m-tolyloxy)pyrrolidin-2-yl)acetic acid]: the EC50 turned out to be 170 nM.

Regarding `CCOc1ccc(F)c(N2CCC(Oc3ccc(N4C[C@H](Oc5ccc(Cl)cc5)C[C@@H]4CC(=O)O)cc3)CC2)c1` [Example 73, 2-((2R,4R)-4-(4-Chlorophenoxy)-1-(4-(1-(5-ethoxy-2-fluorophenyl)piperidin-4-yloxy)phenyl)pyrrolidin-2-yl)acetic acid], the EC50 worked out at 1600 nM.

Turning to `CCOc1ccc(F)c(N2CCC(Oc3ccc(N4C[C@H](Oc5ccc(C)cc5)C[C@@H]4CC(=O)O)cc3)CC2)c1` [Example 74, 2-((2R,4R)-1-(4-(1-(5-Ethoxy-2-fluorophenyl)piperidin-4-yloxy)phenyl)-4-(p-tolyloxy)pyrrolidin-2-yl)acetic acid], the EC50 is 1200 nM.

Turning to `CCOc1ccc(F)c(N2CCC(Oc3ccc(N4C[C@H](Oc5ccccn5)C[C@@H]4CC(=O)O)cc3)CC2)c1` [Example 75, 2-((2R,4R)-1-(4-(1-(5-Ethoxy-2-fluorophenyl)piperidin-4-yloxy)phenyl)-4-(pyridin-2-yloxy)pyrrolidin-2-yl)acetic acid, TFA], the EC50 is 420 nM.

Regarding `CCOc1ccc(F)c(N2CCC(Oc3ccc(N4C[C@H](Oc5cccnc5)C[C@@H]4CC(=O)O)cc3)CC2)c1` [Example 76, 2-((2R,4R)-1-(4-(1-(5-Ethoxy-2-fluorophenyl)piperidin-4-yloxy)phenyl)-4-(pyridin-3-yloxy)pyrrolidin-2-yl)acetic acid], the EC50 worked out at 860 nM.

Turning to `CCOc1ccc(F)c(N2CCC(Oc3ccc(N4C[C@H](Oc5cccc(OC(F)(F)F)c5)C[C@@H]4CC(=O)O)cc3)CC2)c1` [Example 77, 2-((2R,4R)-1-(4-(1-(5-Ethoxy-2-fluorophenyl)piperidin-4-yloxy)phenyl)-4-(3-(trifluoromethoxy)phenoxy)pyrrolidin-2-yl)acetic acid], the EC50 is 140 nM.

Take `CCOc1ccc(F)c(N2CCC(Oc3ccc(N4C[C@H](Oc5ncccn5)C[C@@H]4CC(=O)O)cc3)CC2)c1` [Example 78, 2-((2R,4R)-1-(4-(1-(5-Ethoxy-2-fluorophenyl)piperidin-4-yloxy)phenyl)-4-(pyrimidin-2-yloxy)pyrrolidin-2-yl)acetic acid, TFA]: the EC50 worked out at 1600 nM.

Turning to `CCOc1ccc(F)c(N2CCC(Oc3ccc(N4C[C@H](Oc5ccccc5Cl)C[C@@H]4CC(=O)O)cc3)CC2)c1` [Example 79, 2-((2R,4R)-4-(2-Chlorophenoxy)-1-(4-(1-(5-ethoxy-2-fluorophenyl)piperidin-4-yloxy)phenyl)pyrrolidin-2-yl)acetic acid], the EC50 turned out to be 740 nM.

As to `CCOc1ccc(F)c(N2CCC(Oc3ccc(N4C[C@H](N(C)S(=O)(=O)c5ccccc5)C[C@@H]4CC(=O)O)cc3)CC2)c1` [Example 80, 2-((2R,4R)-1-(4-(1-(5-Ethoxy-2-fluorophenyl)piperidin-4-yloxy)phenyl)-4-(N-methylphenylsulfonamido)pyrrolidin-2-yl)acetic acid, TFA], the EC50 worked out at 4600 nM.

In the case of `CCOc1ccc(F)c(N2CCC(Oc3ccc(N4C[C@H](n5ccnn5)C[C@@H]4CC(=O)O)cc3)CC2)c1` [Example 81, 2-((2R,4R)-1-(4-(1-(5-Ethoxy-2-fluorophenyl)piperidin-4-yloxy)phenyl)-4-(1H-1,2,3-triazol-1-yl)pyrrolidin-2-yl)acetic acid], the EC50 was 1000 nM.

`COc1ccc(C2CCC2)c(N2CCC(Oc3ccc(N4C[C@H](OC)C[C@@H]4CC(=O)O)cc3)CC2)c1` [Example 82, 2-((2R,4R)-1-(4-((1-(2-Cyclobutyl-5-methoxyphenyl)piperidin-4-yl)oxy)phenyl)-4-methoxypyrrolidin-2-yl)acetic acid, HCl]: the half-maximal effective concentration (EC50) amounted to 310 nM.

Turning to `COc1cc(N2CCC(Oc3ccc(N4C[C@H](OC)C[C@@H]4CC(=O)O)cc3)CC2)c2nccn2n1` [Example 86, 2-((2R,4R)-4-Methoxy-1-(4-((1-(6-methoxyimidazo[1,2-b]pyridazin-8-yl)piperidin-4-yl)oxy)phenyl)pyrrolidin-2-yl)acetic acid, TFA], the EC50 was found to be 4700 nM.

With `COc1cc(N2CCC(Oc3ccc(N4C[C@H](OC)C[C@@H]4CC(=O)O)cc3)CC2)c(Cl)cn1` [Example 87, 2-((2R,4R)-1-(4-((1-(5-Chloro-2-methoxypyridin-4-yl)piperidin-4-yl)oxy)phenyl)-4-methoxypyrrolidin-2-yl)acetic acid, TFA], the EC50 stood at 350 nM.

On to `CCOc1ccc(F)c(N2CCC(Oc3ccc(N4C[C@H](OC)[C@@H](CC)[C@@H]4CC(=O)O)cc3)CC2)c1` [Example 88, 2-((2S,3S,4R)-1-(4-((1-(5-Ethoxy-2-fluorophenyl)piperidin-4-yl)oxy)phenyl)-3-ethyl-4-methoxypyrrolidin-2-yl)acetic acid, TFA], for which the EC50 is 250 nM.

With `CCOc1ccc(F)c(N2CCC(Oc3ccc(N4C[C@H](OC)[C@@H](C(C)C)[C@@H]4CC(=O)O)cc3)CC2)c1` [Example 89, 2-((2S,3S,4R)-1-(4-((1-(5-Ethoxy-2-fluorophenyl)piperidin-4-yl)oxy)phenyl)-3-isopropyl-4-methoxypyrrolidin-2-yl)acetic acid, TFA], the EC50 is 320 nM.

Turning to `CCOc1ccc(F)c(N2CCC(Oc3ccc(N4C[C@H](OC)[C@@H](C5CC5)[C@@H]4CC(=O)O)cc3)CC2)c1` [Example 90, 2-((2S,3S,4R)-3-Cyclopropyl-1-(4-((1-(5-ethoxy-2-fluorophenyl)piperidin-4-yl)oxy)phenyl)-4-methoxypyrrolidin-2-yl)acetic acid, TFA], the EC50 is 190 nM.

Turning to `CCOc1ccc(F)c(N2CCC(Oc3ccc(N4C[C@H](OC)[C@@H](C5CCC5)[C@@H]4CC(=O)O)cc3)CC2)c1` [Example 92, 2-((2S,3S,4R)-3-Cyclobutyl-1-(4-((1-(5-ethoxy-2-fluorophenyl)piperidin-4-yl)oxy)phenyl)-4-methoxypyrrolidin-2-yl)acetic acid, TFA], the EC50 came out at 3700 nM.

For the molecule `COc1cc(N2CCC(Oc3ccc(N4C[C@H](OC)C[C@@H]4CC(=O)O)cc3)C(CC#N)C2)c(Cl)cn1` (stereo partly drawn) [Example 93, 2-((2R,4R)-1-(4-(((3,4-trans)-1-(5-Chloro-2-methoxypyridin-4-yl)-3-(cyanomethyl)piperidin-4-yl)oxy)phenyl)-4-methoxypyrrolidin-2-yl)acetic acid, TFA], the EC50 came out at 2300 nM.

Usually EC50 stands for the concentration at which the effect is half-maximal.
